{"source": "patent US20160287615A1", "about": "“NOVEL ENCAPSULATION OF FLUORESCENT, PHOTO-SENSITIVE, OR OXYGEN-SENSITIVE ACTIVE INGREDIENT FOR TOPICAL APPLICATION” (BioPharmX, Inc., priority 2015, published 2016)", "key": {"[1]": {"conditions": "10 h", "protocol": "Additional data was collected with a high performance liquid chromatography (HPLC) machine for two samples. The first sample was minocycline HCl and the second sample comprised a plurality of microparticles that contained minocycline HCl. […] Following exposure of both samples to ultraviolet illumination for 10 hours, an HPLC machine was used to assess the level of degradation of the minocycline active ingredient in both samples."}, "[2]": {"test": "Fluorescence microscopy of compositions under UV fluorescent lamp illumination", "type": "physicochemical", "conditions": "450 nm excitation wavelength", "text": "FIGS. 4a and 4b are images of the fluorescence given off by different compositions in response to illumination with a UV fluorescent lamp. The images of FIGS. 4a and 4b were captured using a digital camera connected to a microscope.\nFIGS. 5a and 5b are images of the fluorescence given off by different compositions in response to illumination with a UV fluorescent lamp. The images of FIGS. 5a and 5b were captured using a digital camera connected to a microscope.\nThe composition includes minocycline contained in a plurality of Mg2CO3 tubular microparticles with a concentration of 1:100 of minocycline to Mg2CO3 tubular microparticles (10 milligrams of minocycline per gram of Mg2CO3 tubular microparticles).\nThe composition shown in FIG. 4b was made by dissolving minocycline HCl in methyl alcohol at a concentration of 10 mg/ml. A plurality of tubular microparticles comprising Mg2CO3 was added to the solution. Microscope slides were prepared with minocycline HCl (shown in FIG. 4a) and the prepared composition with a plurality of tubular microparticles described in this paragraph (shown in FIG. 4b).\nFluorescence can be an indicator of photo-initiated degradation of some antibiotics, including minocycline."}}, "note": "Structures can show the parent of a compound that is named as a salt.", "data": [{"smiles": "CN(C)c1ccc(O)c2c1C[C@H]1C[C@H]3[C@H](N(C)C)C(O)=C(C(N)=O)C(=O)[C@@]3(O)C(O)=C1C2=O", "note": "[minocycline HCl]", "values": [{"measurement": "degradation of the minocycline active ingredient", "setting": "[1]", "result": 4.3, "unit": "%"}, {"measurement": "fluorescence emission wavelength", "setting": "[2]", "result": "approximately 670 nm"}, {"measurement": "fluorescence observed by fluorescence microscopy", "setting": "[2]; UV fluorescent lamp illumination, microscope magnification at 10 times", "result": "showed fluorescence emission"}]}]}
